Reference: patent US11324786B2, “Lactic acid bacteria and use thereof” (priority 2017, dated 2022)

Experiments:
Assay type in all cases: in vivo, mouse
[1] = system: colitis animal model; assay: TNBS colitis animal model: weight change, colon length, toxicity; details: TNBS colitis mice; oral once daily for 3 days; lactic acid bacteria 1×10^9 CFU, sulfasalazine 50 mg/kg
Protocol: One group was used as a normal group, and the other group was treated with 2,4,6-trinitrobenzenesulfonic acid (TNBS) to induce colitis. Specifically, after test animals were anesthetized with ether, 0.1 ml of TNBS solution mixed with 50% ethanol was injected into the large intestine through the anus using a 1 ml syringe with a round tip, and the test animals were raised up vertically for 30 seconds to cause inflammation. Meanwhile, 0.1 ml of physiological saline was orally administered to the normal group. […] The next day when the lactic acid bacteria administration was finished, the test animal was sacrificed, and a portion of the colon from a cecum to a site immediately before the anus was removed and then a length thereof was measured. Then, various following indicators were identified based on the length. On the other hand, 1% dextrose solution as a suspension of lactic acid bacteria instead of the novel lactic acid bacteria was administered orally to the test animals in the normal group. Further, a test animal of a positive control group was orally treated with a colitis treatment drug sulfasalazine in an amount of 50 mg/kg instead of the novel lactic acid bacteria.

[2] = system: COX-2; assay: Colitis animal model: COX-2 in colon; details: colon tissue, TNBS colitis mice; oral once daily for 3 days; lactic acid bacteria 1×10^9 CFU, sulfasalazine 50 mg/kg
Protocol: (§1) 6 C57BL/6 mice (male, 21 to 23 g, 6 weeks old) formed one group which was adapted to a test room for 1 week. One group was used as a normal group, and the other group was treated with 2,4,6-trinitrobenzenesulfonic acid (TNBS) to induce colitis. Specifically, after test animals were anesthetized with ether, 0.1 ml of TNBS solution mixed with 50% ethanol was injected into the large intestine through the anus using a 1 ml syringe with a round tip, and the test animals were raised up vertically for 30 seconds to cause inflammation. Meanwhile, 0.1 ml of physiological saline was orally administered to the normal group. After the administration, the novel lactic acid bacterium Lactobacillus mucosae NK41, Bifidobacterium longum NK46 or a 1:1 mixture thereof was suspended in physiological saline which in turn was orally administered thereto in an amount of 1×10^9 CFU once daily for 3 days from a next day. The next day when the lactic acid bacteria administration was finished, the test animal was sacrificed, and a portion of the colon from a cecum to a site immediately before the anus was removed and then a length thereof was measured. […]
(§2) Western blotting methods were used to measure inflammatory response indicator materials, such as p-p65, p65, COX-2 and IL-17. […] Further, the expression level of cytokines thereof was measured using an ELISA kit.

[3] = system: IL-17; assay: Colitis animal model: IL-17 in colon; details: colon tissue, TNBS colitis mice; oral once daily for 3 days; lactic acid bacteria 1×10^9 CFU, sulfasalazine 50 mg/kg
Protocol: as §1, §2

[4] = system: TNF-α; assay: Colitis animal model: TNF-α in colon; details: colon tissue, TNBS colitis mice; oral once daily for 3 days; lactic acid bacteria 1×10^9 CFU
Protocol: as §1, §2

[5] = system: myeloperoxidase (MPO); assay: Colitis animal model: myeloperoxidase activity in colon tissue; details: TNBS colitis mice, oral once daily for 3 days, lactic acid bacteria 1×10^9 CFU, sulfasalazine 50 mg/kg
Protocol: as §1, with “After the administration, the novel lactic acid bacterium Lactobacillus mucosae NK41, Bifidobacterium longum NK46 or a 1:1 mixture thereof was suspended in physiological saline which in turn was orally administered thereto in an amount of 1×10^9 CFU once daily for 3 days from a next day.” left out
200 μl of 10 mM potassium phosphate buffer (pH 7.0) containing 0.5% hexadecyl trimethyl ammonium bromide was added to 100 mg of colon tissue, and was homogenized. […] 50 μl of the supernatant was added to 0.95 ml of a reaction solution (containing 1.6 mM tetramethyl benzidine and 0.1 mM H2O2) and the absorbance was measured over time at 650 nm while reacting at 37° C. The activity of myeloperoxidase (MPO) was calculated while 1 μmol/ml of H2O2 generated as a reactant was defined as one unit.

## O=C(O)c1cc(/N=N/c2ccc(S(=O)(=O)Nc3ccccn3)cc2)ccc1O [Positive group, sulfasalazine]
[1]
  Colon length: 4.7 cm
  Weight change: -0.54 g
[2]
  COX-2 activity: 0.41
[3]
  IL-17: 41 pg/mg
[4]
  TNF-α: 75 pg/mg
[5]
  MPO activity: 0.98 μU/mg
